Data as given in article PMC4245162 (ACS Chemical Biology, 2014).

Molecular target: T1, SETD8 (Homo sapiens, UniProt Q9NQR1)
T1 sequence (Q9NQR1 191-352 isoform Q9NQR1-2): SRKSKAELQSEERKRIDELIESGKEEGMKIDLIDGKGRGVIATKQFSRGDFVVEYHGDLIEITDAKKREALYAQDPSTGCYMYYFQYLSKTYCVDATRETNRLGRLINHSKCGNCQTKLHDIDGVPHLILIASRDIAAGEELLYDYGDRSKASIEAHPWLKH
Experiment: secondary radiometric filter paper assay, SETD8
Format: biochemical
Details: read-out: IC50 against SETD8; apparent IC50; SAM/peptide/enzyme = 0.75:1.5:1

IC50: 82 µM
SMILES: O=C1C(SCCO)=C(SCCO)C(=O)c2ccccc21 [NSC95397]
